The test system of data set [1] is DAOY cells. Description: Cell cycle analysis in DAOY cells. The data set is classed as cell-based, human. As to conditions: 5 μM, 48 hours; control 52.8%. An excerpt: FIGS. 3A-3F show the effect of MDP5 treatment on cell cycle analysis, induction of apoptosis, and colony formation assay in MB cells. […] Histograms show the quantitative analysis of cell cycle assay for DAOY (FIG. 3A) and HD-MB03 (FIG. 3B) cells (n=5; mean±S.D., p<0.05). […] FIG. 3C provides images of cells treated with the indicated compounds. […] FIGS. 3D and 3E provide graphs of the apoptotic assay showing higher numbers of apoptotic cells in MDP5 treated groups (n=5; mean±S.D.; p<0.05). FIG. 3F provides a graph of the relative expression of BCL2 and MYCN target genes after treatment, as determined by RT-PCR.
Cell cycle distribution was determined in proliferating MB cells. […] Cells were harvested with 0.25% EDTA-free trypsin (Gibco) and washed twice in ice-cold PBS. Control and treated cells (0.1×10^6) were stained with FxCycle™ PI/RNase Staining Solution (ThermoFisher Scientific) and analyzed for DNA content via flow cytometry.

For data set [2], the system named is HD-MB03 cells. Description: Annexin V/PI apoptosis assay in HD-MB03 cells. The data set is classed as cell-based, human. As to conditions: 48 hours of treatment; untreated 29.76%. As for the experimental part: For apoptosis assay, the cells were collected as above and stained with 500 μL 1× binding buffer containing 5 μL annexin V-FITC and 10 μL propidium iodide (PI) in the dark for 5 minutes. Flow cytometry (FACSCalibur™ cytometer, BD Biosciences) was performed to quantify and calculate the cell apoptosis rate. AV-FITC values were set horizontally, and PI values were set as vertical axes. All experiments were performed in triplicate.

The target of a further data set is BRD4-BD2 (Homo sapiens, UniProt O60885). Description: Protein Thermal Shift (PTS) assay on BRD4-BD2. The data set is classed as binding. On the set-up: polyhistidine (N, cleaved yes); made in house; host or cells: E. coli (T7 express). As to conditions: 100 μM ligand, 20 μM BD protein. As for the experimental part:
The genes encoding human BRD2-BD1, BRD2-BD2, and BRD4-BD2 were codon-optimized for expression in E. coli. […] The sequence-confirmed plasmids were used to transform T7 express E coli. Large-scale cell cultures were grown in LB media containing […] carbenicillin and incubated with shaking at 37° C. until the OD600 nm reached 0.6. Then cultures were cooled to 16° C., and 1 mM isopropyl β-D-1-thiogalactopyranoside was added to induce the protein expression. After 20 hours of incubation, cells were harvested. The resulting cell pellet was resuspended in a lysis buffer containing 50 mM Tris pH 7.5, 200 mM NaCl, 0.5 mM imidazole, and 0.3 mM tris(2-carboxyethyl) phosphine (TECP). After the addition of DNase I and lysozyme, the cell suspension was incubated on ice for 30 minutes and lysed by sonication. The lysate was clarified by centrifugation at 12,000 rpm for 45 minutes. The resulting supernatant was applied to a 5 mL metal affinity cobalt column pre-equilibrated with lysis buffer. Then, 25 column volumes of lysis buffer were passed through the column to eliminate unbound E coli proteins. Recombinant protein was eluted isocratically with the elution buffer containing 50 mM Tris pH 7.5, 200 mM NaCl, 150 mM imidazole, and 0.3 mM TECP. The rhinovirus 3C protease was added to the eluted recombinant protein to cleave the N-terminal Histidine tag and the sample dialyzed against a buffer containing 50 mM Tris pH 7.5, 100 mM NaCl and 0.3 mM TECP. After 12 hours, the protein solution was passed through a 5 ml cobalt column, which was pre-equilibrated with dialysis buffer, and the recombinant protein lacking the His-tag was collected from the flowthrough.
Each reaction used 20 μM concentration of recombinant BD protein in a 50 mM Tris pH 7.5 buffer containing 100 mM NaCl, 0.3 mM tris(2-carboxyethyl) phosphine HCl, and 1% dimethyl sulfoxide. Protein Thermal Shift Dye (ThermoFisher) was also added at 1× concentration. Under these conditions, 3 protein melting curves with each respective BD and 100 μM final concentration of ligand were performed from 25 to 95° C. with a ramp rate of 0.5° C./minute. Evaluation of the derivative of the fluorescence signal employed the Applied Bioscience Protein Thermal Shift Software version 1.3 to determine the average melting temperature (Tm) for each sample and the standard deviation(s) of those Tm values.

The test system of data set [3] is DAOY cells. As to the kind of experiment: Cell viability MTT assay in DAOY cells. The data set is classed as cell-based, human. As to conditions: 48-72 hours. As for the experimental part: (§1) For cell viability assay, DAOY cells from SHH-MB group and HD-MB03 from Group 3 MB were exposed to new analogs in a range of concentrations. In brief, cells were seeded in 96-well plate with a density of 3×10^3 cells/well density for 16 hours. Cells were then treated with different drug concentrations for 48-72 hours. MTT assay reagent was added to the cells and after incubation for 4 hours, formazan crystals were dissolved in 200 μL DMSO, and the absorbance was determined using a microplate reader (Molecular Devices Me5). The IC50 was determined by nonlinear least square regression by performing each experiment in triplicate.
In general terms: Tetrazolium assays rely on reduction of a dye to a coloured formazan, in cell work by metabolically active cells.

The next data set relates to ONS-76 cells. As to the kind of experiment: Side population (SP) assay. The data set is classed as cell-based. As to conditions: 30 minutes preincubation; control 4.57%. As for the experimental part: After washing thrice with staining buffer, 1×10^6 cells were stained with 5 μg/mL of Hoechst 33342 (Thermo Scientific; 62,249) for 1 hour in an incubator with occasional shaking every 20 minutes. The PI solution 5 μL was added to exclude dead cells and analyzed with flow cytometry (LSRII, BD Biosciences).

Data set [4] deals with DAOY and HD-MB03 cell-generated tumors. Description: Subcutaneous MB tumor xenograft model. The conditions noted are these: for tumor growth / tumor burden: 15 mg/kg dose, vs vehicle treated control. The data set is classed as in vivo. As to the method: All the animal-related experiments were performed according to the Institutional Animal Care and Use Committee (IACUC) of the University of Nebraska Medical Center's approved protocol and met federal guidelines. Subcutaneous and orthotopic xenograft models were generated in this study. For establishing the xenograft model, DAOY cells (1×10^6) were injected into the right flank of 8-10 weeks old male and female mice. Tumor growth was measured non-invasively by using vernier calipers. For both measurements, tumor volumes were calculated by using the following formula: Volume=(Length×Width^2)/2.
A total of seven injections were given, and the mouse body weights were measured before every injection. The tumor growth was monitored by calipers in the case of the xenograft model and by IVIS imaging for the orthotopic model. For histological examination, the major organs of representative mice from each animal group were dissected and stained with H&E. Tissues after being fixed with 10% paraformaldehyde solution for 24 hours were embedded in 5 μm thick sections of paraffin, and were stained for different proteins. Stained slides were imaged at 40× magnification using an iScan HT Slide Scanner (Ventana Medical Systems, Inc, AZ).

Data set [5] deals with HD-MB03 cells. Description: Cell viability MTT assay in HD-MB03 cells. The data set is classed as cell-based, human. As for the experimental part: as §1

Entries after “also recorded” stand apart in the source; their conditions may differ. Like-named read-outs stand apart in the source and are kept apart here.

In general, IC50 refers to the concentration needed to halve the response being measured. Take `O=C(/C=C/N1CCOCC1)c1cccc(-c2cc3c(cc2Br)OCCO3)c1O` [MDP1, (E)-1-(3-(7-bromo-2,3-dihydrobenzo [b][1,4]dioxin-6-yl)-2-hydroxyphenyl)-3-morpholinoprop-2-en-1-one]: in the data set on DAOY cells [1], the “cells in the G1 phase, DAOY” value came to 40.1%. In addition, the “percentage of apoptosis, HD-MB03” value in the data set with HD-MB03 cells [2] was 65.66%. On BRD4-BD2 (thermal destabilization), the “BRD4-BD2 Tm decrease” value came out at 1.3 °C. In addition, the half-inhibitory concentration (IC50) in the data set with DAOY cells [3] (Homo sapiens, Daoy) is 5.51 µM; in the data set with HD-MB03 cells [5] (Homo sapiens, HD-MB03, 48-72 hours, read-out: IC50 in HD-MB03 cells), 5.56 µM. The “percentage of SP proportion” value with ONS-76 cells was determined as 0.7%. In data set [4], the “tumor growth / tumor burden” value is reported as “significant inhibition of tumor growth”.

For `O=c1cc(N2CCOCC2)oc2c(-c3ccc4c(c3)OCCO4)cccc12` [MDP5, 8-(2,3-dihydrobenzo [b][1,4]dioxin-6-yl)-2-morpholino-4H-chromen-4-one], the “cells in the G1 phase, DAOY” value in the data set on DAOY cells [1] is reported as 73.2%. The “percentage of apoptosis, HD-MB03” value in the data set on HD-MB03 cells [2] turned out to be 65.15%. Also, the “BRD4-BD2 Tm increase” value on BRD4-BD2 turned out to be 1.7 °C. Also, the concentration for half-maximal inhibition (IC50) with DAOY cells [3] was found to be 5.5 µM; in the data set on DAOY cells [3] (Homo sapiens, Daoy), 5.57 µM; in the data set on HD-MB03 cells [5] (Homo sapiens, HD-MB03, 48-72 hours, read-out: IC50 in HDMB-03 cells (unit printed M)), 5.14 µM. Besides, the “percentage of SP proportion” value with ONS-76 cells is reported as 0.9%. Also, the “tumor growth / tumor burden” value in data set [4] is given as “significant inhibition of tumor growth”. In addition, in data set [4] (20 mg/kg i.v. every third day), the “toxicity / tolerability by body weight” value is recorded as “no sign of toxicity; also recorded: well tolerated (no bodyweight change)”. For the same compound, the “histologic examination of major organs (liver, lung, spleen, heart, kidneys)” value in data set [4] (20 mg/kg, after completion of treatment) was “did not demonstrate toxicity”. The “tumor growth (tumor volume)” value in data set [4] (20 mg/kg, vs vehicle/control group) is given as “significantly affected tumor growth; also recorded: reduced tumor growth compared to the control group”. In addition, in data set [4] (DAOY and HD-MB03 generated tumors), the “H&E staining and Ki-67 IHC of tumors” value was “suppressed cell proliferation and decreased tumor burden”. Moreover, in data set [4] (tested dose of b195 (15 mg/kg), vs vehicle control), the “tolerability by body weight and histological examination of vital organs” value was “well tolerated”.

On to `O=c1cc(N2CCOCC2)oc2c(-c3ccc4c(c3)OCCO4)csc12` [SF2523, reference compound], for which, in the data set with DAOY cells [1], the “cells in the G1 phase, DAOY” value was found to be 73.1%. For the same compound, in the data set on HD-MB03 cells [2], the “percentage of apoptosis, HD-MB03” value is on record as 54%. Moreover, the “BRD4-BD2 Tm increase” value at BRD4-BD2 was 3.4 °C. Besides, the half-maximal inhibitory concentration (IC50) with DAOY cells [3] was determined as 12.6 µM; in the data set with HD-MB03 cells [5] (48-72 hours, read-out: IC50 in HD-MB03 cells) it was 5.14 µM. The “percentage of SP proportion” value in the data set with ONS-76 cells came to 2.57%. In data set [4], the “tumor growth / tumor burden” value is reported as “significant inhibition of tumor growth”.
